Reference: ChEMBL document CHEMBL1201862, “PubChem BioAssay data set” (2004)
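Assay format: 96-well plates, 48-hour exposure. GI50: concentration for 50% inhibition of growth.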 Calls of active or inactive are those of the source. Cut-off read from the data, not from the text of the source: active = GI50 up to about 1.1 µM and inactive = higher.

Columns and labels:
Test in all cases: NCI-60 cell line screen, 48 h
HCT-15 = tested on: HCT-15
CCRF-CEM = tested on: CCRF-CEM
OVCAR-3 = tested on: OVCAR-3
NCI-H460 = tested on: NCI-H460
UACC-62 = tested on: UACC-62
HOP-62 = tested on: HOP-62
RPMI-8226 = tested on: RPMI-8226
NCI-H522 = tested on: NCI-H522
HOP-92 = tested on: HOP-92
KM12 = tested on: KM12
NCI/ADR-RES = tested on: NCI/ADR-RES
OVCAR-4 = tested on: OVCAR-4
A498 = tested on: A498
NCI-H23 = tested on: NCI-H23
SNB-75 = tested on: SNB-75
HL-60 = tested on: HL-60
SK-MEL-2 = tested on: SK-MEL-2
MDA-N = tested on: MDA-N
SK-MEL-28 = tested on: SK-MEL-28
HT-29 = tested on: HT-29

Compound | GI50 (HCT-15) [µM] | GI50 (CCRF-CEM) | GI50 (OVCAR-3) | GI50 (NCI-H460) | GI50 (UACC-62) | GI50 (HOP-62) | GI50 (RPMI-8226) | GI50 (NCI-H522) | GI50 (HOP-92) | GI50 (KM12) | GI50 (NCI/ADR-RES) | GI50 (OVCAR-4) | GI50 (A498) | GI50 (NCI-H23) | GI50 (SNB-75) | GI50 (HL-60) | GI50 (SK-MEL-2) | GI50 (MDA-N) | GI50 (SK-MEL-28) | GI50 (HT-29)
S=C1NC2=C(COC/C2=C\c2ccccc2Cl)C(c2ccccc2Cl)N1 (stereo not given) | 16.8 | 8.75 µM (inactive) | 32.1 µM (inactive) | 18.8 µM (inactive) | 65.3 µM (inactive) | 61.4 µM (inactive) | 5.26 µM (inactive) | 29.6 µM (inactive) | 36.4 µM (inactive) | 11 µM (inactive) | 21.2 µM (inactive) | 31.3 µM (inactive) | 80 µM (inactive) | 34.9 µM (inactive) | 49.5 µM (inactive) | 11.4 µM (inactive) | 21.2 µM (inactive) | 32.7 µM (inactive) | – | –
O=C(O)c1nc2nc(Cl)c(Cl)nc2[nH]1 | > 100 | > 100 µM (inactive) | > 100 µM (inactive) | > 100 µM (inactive) | > 100 µM (inactive) | > 100 µM (inactive) | > 100 µM (inactive) | > 100 µM (inactive) | > 100 µM (inactive) | > 100 µM (inactive) | > 100 µM (inactive) | > 100 µM (inactive) | > 100 µM (inactive) | > 100 µM (inactive) | > 100 µM (inactive) | > 100 µM (inactive) | > 100 µM (inactive) | > 100 µM (inactive) | > 100 µM (inactive) | > 100 µM (inactive)
N#CC(NNC(=O)Cc1ccccc1)c1ccccc1O (stereo not given) | 4.25 | 4 µM (inactive) | 3.75 µM (inactive) | 6.84 µM (inactive) | 5.28 µM (inactive) | 15.8 µM (inactive) | 6.87 µM (inactive) | 4.88 µM (inactive) | 23.3 µM (inactive) | 11.6 µM (inactive) | 3.93 µM (inactive) | 11.8 µM (inactive) | > 48.9 µM (inactive) | 9.23 µM (inactive) | 21.3 µM (inactive) | 3.35 µM (inactive) | 30.3 µM (inactive) | 19.4 µM (inactive) | 26.2 µM (inactive) | 9.18 µM (inactive)
COc1cc(-c2cc(=O)c3c(OC)c(OC)c(OC)c(OC)c3o2)cc(OC)c1OC [HEPATAMETHOXYFLAVONE] | 33.4 | 30.5 µM (inactive) | 25.5 µM (inactive) | 42.3 µM (inactive) | 21 µM (inactive) | 41.9 µM (inactive) | 26.1 µM (inactive) | 19.1 µM (inactive) | 9.98 µM (inactive) | – | 23.6 µM (inactive) | 32.4 µM (inactive) | 21.2 µM (inactive) | 41.8 µM (inactive) | 26.4 µM (inactive) | 15 µM (inactive) | 27.9 µM (inactive) | 42.7 µM (inactive) | 53.2 µM (inactive) | 35.9 µM (inactive)
O=S(=O)(O)c1ccc2c(/N=N/c3c(O)ccc4ccccc34)cccc2c1 | > 100 | 70.6 µM (inactive) | 88.9 µM (inactive) | > 100 µM (inactive) | > 100 µM (inactive) | > 100 µM (inactive) | > 100 µM (inactive) | > 100 µM (inactive) | > 100 µM (inactive) | > 100 µM (inactive) | > 100 µM (inactive) | > 100 µM (inactive) | > 100 µM (inactive) | > 100 µM (inactive) | > 100 µM (inactive) | > 100 µM (inactive) | > 100 µM (inactive) | > 100 µM (inactive) | > 100 µM (inactive) | > 100 µM (inactive)
CCCCOC(=O)C(=O)C(CCC(=O)c1ccc(C)cc1)C(=O)C=C(C)C (stereo not given) | > 100 | > 100 µM (inactive) | > 100 µM (inactive) | > 100 µM (inactive) | > 100 µM (inactive) | > 100 µM (inactive) | > 100 µM (inactive) | > 100 µM (inactive) | > 100 µM (inactive) | > 100 µM (inactive) | > 100 µM (inactive) | > 100 µM (inactive) | > 100 µM (inactive) | > 100 µM (inactive) | > 100 µM (inactive) | > 100 µM (inactive) | > 100 µM (inactive) | > 100 µM (inactive) | > 100 µM (inactive) | > 100 µM (inactive)
Cc1ccc(-c2nnc(CCCCCCCCc3nnc(-c4ccc(C)cc4O)n3N)n2N)c(O)c1 | > 100 | > 10 µM (inactive) | > 100 µM (inactive) | > 100 µM (inactive) | > 100 µM (inactive) | – | > 100 µM (inactive) | > 100 µM (inactive) | 9.71 µM (inactive) | > 100 µM (inactive) | > 100 µM (inactive) | > 100 µM (inactive) | > 100 µM (inactive) | > 100 µM (inactive) | 33.9 µM (inactive) | > 10 µM (inactive) | > 100 µM (inactive) | > 100 µM (inactive) | > 100 µM (inactive) | –
